Patent publication US12187709B2 (Genentech, Inc., priority 2021, dated 2025)

Assays:
c-Cbl (residues 47-435) = c-Cbl (residues 47-435) (Homo sapiens (Human), UniProt P22681); assay: c-Cbl SPR assay; assay type: binding; settings: 20° C.
Outline: (§1)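 Protein captured at 1300-1500 RU; compounds run as 6-point 2-fold series in multi-cycle kinetics (60 s contact, 40 μl/min, 120-1200 s dissociation), fitted 1:1. For slow binders, kd came from chaser-compound occupancy over time, fixed in a single-cycle fit (5 concentrations, top 500 nM).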

Cbl-b = Cbl-b (Homo sapiens (Human), UniProt Q13191); assay: Cbl-b LCK Ub TR-FRET assay (Cbl-b Lck HTRF); assay type: biochemical; settings: for IC50: Cbl-b LCK Ub TR-FRET; for (fold-selectivity) Cbl-b and C-Cbl Selectivity / fold-selectivity (Cbl-b over C-cbl): ratio C-cbl Lck HTRF IC50 / Cbl-b Lck HTRF IC50
Outline: (§2)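 Signal is read once the detection mix has stood 20 min at ambient temperature. Curves are anchored by DMSO as maximum and by omission of LCK as minimum.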

c-Cbl = c-Cbl (Homo sapiens (Human), UniProt P22681); assay: C-Cbl LCK Ub TR-FRET assay (C-cbl Lck HTRF); assay type: biochemical
Outline: as §2

[1] = biological target: Human Cbl-b (residues 40-426) (Homo sapiens (Human), UniProt Q13191); assay: Cbl-b SPR assay; assay type: binding; settings: for Fold of selectivity: C-cbl SPR Kd vs Cbl-b SPR Kd; for Kd: SPR, 20° C.
Outline: as §1

Human Cbl-b (residues 40-426), sequence (Q13191 40-426): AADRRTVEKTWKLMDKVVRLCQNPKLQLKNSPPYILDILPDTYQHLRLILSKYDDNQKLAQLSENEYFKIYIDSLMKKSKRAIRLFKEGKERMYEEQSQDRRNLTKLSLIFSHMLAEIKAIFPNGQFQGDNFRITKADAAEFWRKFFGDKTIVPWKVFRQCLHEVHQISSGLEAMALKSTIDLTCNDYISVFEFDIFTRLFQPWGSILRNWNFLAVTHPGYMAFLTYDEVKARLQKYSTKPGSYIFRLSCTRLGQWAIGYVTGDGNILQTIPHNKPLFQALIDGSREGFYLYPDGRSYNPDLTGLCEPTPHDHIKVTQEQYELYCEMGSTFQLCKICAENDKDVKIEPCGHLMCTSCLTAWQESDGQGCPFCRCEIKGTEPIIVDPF
Cbl-b, sequence (Q13191 40-426): as above
c-Cbl (residues 47-435), sequence (P22681 47-435): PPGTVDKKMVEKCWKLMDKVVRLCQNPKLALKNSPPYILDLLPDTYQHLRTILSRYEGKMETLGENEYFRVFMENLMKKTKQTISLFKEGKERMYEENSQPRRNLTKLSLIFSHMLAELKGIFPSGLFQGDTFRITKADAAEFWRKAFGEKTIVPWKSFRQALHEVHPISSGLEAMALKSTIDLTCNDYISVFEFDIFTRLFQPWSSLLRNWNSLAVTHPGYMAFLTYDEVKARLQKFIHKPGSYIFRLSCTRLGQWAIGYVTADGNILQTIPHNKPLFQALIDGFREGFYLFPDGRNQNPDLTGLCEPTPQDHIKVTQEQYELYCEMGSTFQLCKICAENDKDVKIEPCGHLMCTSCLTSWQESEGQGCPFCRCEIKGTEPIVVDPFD
c-Cbl, sequence (P22681 47-435): as above

Row | Compound | Kd (c-Cbl (residues 47-435)) [nM] | IC50 (Cbl-b; Example 121) [nM] | (fold-selectivity) Cbl-b and C-Cbl Selectivity (Cbl-b) [x] | IC50 (c-Cbl) [nM] | Fold of selectivity [1] [×] | Kd [1] [nM] | IC50 (Cbl-b) [nM] | fold-selectivity (Cbl-b over C-cbl) (Cbl-b)
1 | Cn1cnnc1[C@]1(c2cccc(N3Cc4c(Cl)cc(CNC5(C)CCC5)cc4C3=O)c2)C[C@@H](Cl)C1 [Compound 451, 4-chloro-2-(3-((1r,3r)-3-chloro-1-(4-methyl-4H-1,2,4-triazol-3-yl)cyclobutyl)phenyl)-6-(((1-methylcyclobutyl)amino)-methyl)isoindolin-1-one] | 1.5 | 4.2 | 1.6 | 6.6 | 6.0 | 0.25 | – | –
2 | Cn1cnnc1[C@]1(c2cc(NC3CC(F)(F)C3)nc(N3Cc4c(cc(CNC5(C)CCC5)cc4C(F)(F)F)C3=O)c2)C[C@@H](C)C1 [Compound 48, 2-(6-((3,3-difluorocyclobutyl)amino)-4-((1r,3r)-3-methyl-1-(4-methyl-4H-1,2,4-triazol-3-yl)cyclobutyl)pyridin-2-yl)-6-(((1-methylcyclobutyl)amino)methyl)-4-(trifluoromethyl)isoindolin-1-one] | 11 | – | – | 15 | 3.0 | 3.8 | 10 | (1.5x)
3 | C[C@H](CC#N)Nc1cc(C2(c3nncn3C)CC3(COC3)C2)cc(N2Cc3c(cc(CNC4(C)CCC4)cc3C(F)(F)F)C2=O)n1 [Compound 192, (R)-3-((4-(6-(4-methyl-4H-1,2,4-triazol-3-yl)-2-oxaspiro[3.3]heptan-6-yl)-6-(6-(((1-methylcyclobutyl)amino)methyl)-1-oxo-4-(trifluoromethyl)isonidolin-2-yl)pyridin-2-yl)amino)butanenitrile] | 1.7 | – | – | 9.2 | 5.7 | 0.3 | 13 | 0.7x
4 | Cn1ccnc1[C@@H](c1cccc(N2Cc3c(cc(CNC4(C)CCC4)cc3C(F)(F)F)C2=O)c1)C1COC1 (single isomer, unassigned) [Compound 352] | 270 | – | – | 280 | 7.6 | 34 | 69 | 4.1x
5 | Cn1cnnc1[C@]1(c2cccc(N3Cc4c(cc(CNC5(C)CCC5)cc4C(F)(F)F)C3=O)c2)C[C@@]2(CCCO2)C1 [Compound 341, 2-(3-((2r, 4s)-2-(4-methyl-4H-1,2,4-triazol-3-yl)-5-oxaspiro [3.4]octan-2-yl)phenyl)-6-(((1-methylcyclobutyl)amino)methyl)-4-(trifluoromethyl) isoindolin-1-one] | 120 | – | – | 100 | 11 | 11 | 13 | 8.4x
6 | CC[C@@H](c1cccc(N2Cc3c(Cl)cc(CNC4(C)CCC4)cc3C2=O)c1)c1nncn1C (single isomer, unassigned) [Compound 359] | 0.82 | – | – | 4.1 | 2.1 | 0.4 | 4.8 | 0.85x
7 | CC[C@H]1C[C@](c2cccc(N3Cc4c(cc(CNC5(C)CCC5)cc4C(F)(F)F)C3=O)c2)(c2nncn2C)C1 [Compound 455, 2-(3-((1s,3r)-3-ethyl-1-(4-methyl-4H-1,2,4-triazol-3-yl)cyclobutyl)phenyl)-6-(((1-methylcyclobutyl)amino)methyl)-4-(trifluoromethyl)isoindolin-1-one] | 15 | 8.7 | 2.3 | 20 | 11 | 1.4 | – | –
8 | CO[C@H]1C[C@@](c2cc(NCCC#N)cc(N3Cc4c(cc(CNC5(C)CCC5)cc4C(F)(F)F)C3=O)c2)(c2nncn2C)C1 [Compound 224] | 100 | – | – | 100 | 10 | 9.5 | 20 | 5.0x
9 | Cn1nnnc1[C@@H](c1cccc(N2Cc3c(cc(CNC4(C)CCC4)cc3C(F)(F)F)C2=O)c1)C1COC1 (single isomer, unassigned) [Compound 348] | 630 | – | – | 500 | 8.4 | 75 | 140 | 3.5x
10 | CO[C@H]1C[C@](c2cccc(N3Cc4c(cc(CNC5CC(C)(C)C5)cc4C(F)(F)F)C3=O)c2)(c2nncn2C)C1 [Compound 488, 6-(((3,3-dimethylcyclobutyl)amino)methyl)-2-(3-((1r,3r)-3-methoxy-1-(4-methyl-4H-1,2,4-triazol-3-yl)cyclobutyl)phenyl)-4-(trifluoromethyl)isoindolin-1-one] | 13 | 5.8 | 2.4 | 14 | 13 | 1 | – | –
11 | Cn1cnnc1[C@]1(c2cccc(N3Cc4c(cc(CNC5(C)CCC5)cc4C(F)F)C3=O)c2)C[C@H](F)C1 [Compound 247, 4-(difluoromethyl)-2-(3-((1s,3s)-3-fluoro-1-(4-methyl-4H-1,2,4-triazol-3-yl)cyclobutyl)phenyl)-6-(((1-methylcyclobutyl)amino)methyl)isoindolin-1-one] | 12 | – | – | 18 | 5.5 | 2.2 | 9.8 | 1.9x

Further compounds by falling Kd (c-Cbl (residues 47-435)), results first:

Row | Kd (c-Cbl (residues 47-435)) [nM] | IC50 (Cbl-b; Example 121) [nM] | (fold-selectivity) Cbl-b and C-Cbl Selectivity (Cbl-b) [x] | IC50 (c-Cbl) [nM] | Fold of selectivity [1] [×] | Kd [1] [nM] | IC50 (Cbl-b) [nM] | fold-selectivity (Cbl-b over C-cbl) (Cbl-b) | Compound
12 | 18000 | – | – | 16000 | 4.1 | 4300 | 4500 | 3.7x | Cn1cnnc1C1(c2cccc(N3Cc4c(cc(CNC5(C)CCC5)cc4C(F)(F)F)C3=O)c2)CC2(CN(CC(F)(F)F)C2)C1 [Compound 96, 2-(3-(6-(4-methyl-4H-1,2,4-triazol-3-yl)-2-(2,2,2-trifluoroethyl)-2-azaspiro[3.3]heptan-6-yl)phenyl)-6-(((1-methylcyclobutyl)amino)methyl)-4-(trifluoromethyl)-isoindolin-1-one]
13 | 210 | 19 | 7.4 | 150 | 41 | 4.9 | – | – | COCC1(NCc2cc3c(c(C(F)(F)F)c2)CN(c2cccc([C@]4(c5nncn5C)C[C@H](OC)C4)c2)C3=O)CC1 [Compound 487, 2-(3-((1r,3r)-3-methoxy-1-(4-methyl-4H-1,2,4-triazol-3-yl)cyclobutyl)phenyl)-6-(((1-(methoxymethyl)cyclopropyl)amino)methyl)-4-(trifluoromethyl)isoindolin-1-one]
14 | 120 | – | – | 160 | 21 | 5.2 | 17 | 9.2x | Cn1cnnc1[C@]1(c2cccc(N3Cc4c(cc(CNC5(C)CCC5)cc4C(F)(F)F)C3=O)c2)C[C@]2(CCO2)C1 [Compound 108, 2-(3-((4r,6r)-6-(4-methyl-4H-1,2,4-triazol-3-yl)-1-oxaspiro[3.3]heptan-6-yl)phenyl)-6-(((1-methylcyclobutyl)amino)methyl)-4-(trifluoromethyl)isoindolin-1-one]
15 | 90 | 52 | 1.1 | 57 | 1.4 | 62 | – | – | Cn1cnnc1[C@H](c1cc(Cl)cc(N2Cc3c(cc(CNC4(C)CCC4)cc3C(F)(F)F)C2=O)c1)C1COC1 (single isomer, unassigned) [Compound 409]
16 | 53 | – | – | 60 | 16 | 3.2 | 12 | 5.0x | CO[C@H]1C[C@](c2cccc(N3Cc4c(cc(CNC5(C)CCC5)cc4C(F)F)C3=O)c2)(c2nncn2C)C1 [Compound 117, 4-(difluoromethyl)-2-(3-((1r,3r)-3-methoxy-1-(4-methyl-4H-1,2,4-triazol-3-yl)cyclobutyl)phenyl)-6-(((1-methylcyclobutyl)amino)methyl)isoindolin-1-one]
17 | 16 | – | – | 34 | 8.3 | 1.9 | 13 | 2.5x | C[C@@H](CC#N)Nc1cc(C2(c3nncn3C)CC3(COC3)C2)cc(N2Cc3c(cc(CNC4(C)CCC4)cc3C(F)(F)F)C2=O)n1 [Compound 194, (S)-3-((4-(6-(4-methyl-4H-1,2,4-triazol-3-yl)-2-oxaspiro[3.3]heptan-6-yl)-6-(6-(((1-methylcyclobutyl)amino)methyl)-1-oxo-4-(trifluoromethyl)isoindolin-2-yl)pyridin-2-yl)amino)butanenitrile]
18 | 12 | – | – | 18 | 5 | 2.5 | 12 | (1.5x) | CO[C@H]1C[C@H]([C@@H](c2cccc(N3Cc4c(cc(CN5CCN(C)C[C@@H]5C(C)C)cc4C(F)(F)F)C3=O)c2)c2nncn2C)C1 (single isomer, unassigned) [Compound 12]
19 | 4.2 | – | – | 6.3 | 2.5 | 1.7 | 5.6 | 1.1x | COc1cc([C@@H](c2nncn2C)C2COC2)cc(N2Cc3c(cc(CNC4(C)CCC4)cc3C(F)(F)F)C2=O)c1 (single isomer, unassigned) [Compound 339]
